System: YUSAC-2 melanoma cells
Assay: Apoptosis in Tet-regulated YUSAC-2 transfectants (DNA content, TUNEL, caspase-9 Western blot)
Format: cell-based, human
Details: for G2/M and apoptotic (sub-G1) DNA content after transgene induction: stably transfected YUSAC-2 lines, Tet withdrawn (transgene expressed)
Procedure: Three YUSAC-2 melanoma cell lines stably transfected with survivin(T34A) in pTet splice were analyzed for DNA content by propidium iodide staining and flow cytometry in the presence (Tet+) or absence (Tet−) of Tet. The percentages of cells with sub-G1 (apoptotic) DNA content after a 3-d culture at 37° C. are indicated.
The experimental conditions are the same as in A, except that a subclone of YUSAC-2 transfectants, F5.C4 was analyzed in the presence (Tet+) or in the absence (Tet−) of Tet for internucleosomal DNA fragmentation by end-labeling with terminal deoxynucleotidyl transferase (TdT) and a peroxidase-conjugated anti-digoxigenin antibody.
Tet+ and Tet− F5.C4 cells characterized as described in FIG. 4, were harvested at the indicated time intervals after thymidine release and immunoblotted with an antibody to caspase-9. TNF+CHX, extract of HeLa cells treated with 10 ng/ml TNFα plus 10 μg/ml cycloheximide. Arrows, position of ˜46 kDa proform caspase-9, and ˜35 kDa and ˜37 kDa active caspase-9 bands.
Cells were then fixed, permeabilized and stained with propidium iodide for DNA content as described (Grossman et al., 1999). The marker indicates the sub-G1 fraction, corresponding to apoptotic cells.
Cells were fixed in 1% paraformaldehyde for 10 minutes at room temperature and then permeabilized with acetic acid and ethanol for 5 minutes at […]. Arrows indicate TUNEL-reactive (Shockett et al., 1995) cells with apoptotic morphology.
Transfection experiments. For transient transfection, HeLa cells in C-6 tissue culture plates (Costar, Cambridge, Mass.) at ˜60-70% confluency, were incubated in 1 ml of serum-free OptiMEM medium (Life Technologies, Gaithersburg, Md.) for 20 min, and transfected with 2.5 μg of the various plasmid cDNAs plus 9 μl Lipofectamine (Life Technologies). After a 5 h incubation at 37° C., the mixture was aspirated and substituted with complete growth medium for 48-72 h. To generate stable YUSAC-2 transfectants, a survivin(T34A) cDNA was inserted into the HindIII-SpeI sites of the pTet-splice vector (Dr. D. Schatz, Yale University School of Medicine), downstream of the regulatory sequences of the Tet-resistance operon (TetO). YUSAC-2 cells were transfected with 0.8 μg pTet-T34A, 0.8 μg of the transactivation/selection plasmid ptTA-Neo and 5 μl Lipofectamine in 1 ml of OptiMem. Forty-eight h after transfection, cells were re-plated at low density in 15×150 mm plates in growth medium containing 1.5 mg/ml Geneticin (G418, Life Technologies), 2 mM sodium hydroxide and 0.5 μg/ml Tet (Sigma, St. Louis, Mo.) (selection medium). […] Gated GFP-expressing cells were analyzed for DNA content by flow cytometry on a FACSort (Becton Dickinson, San Jose, Calif.) using a Cell Quest software. […]

**Q.** What does the source list for “survivin(T34A): dominant-negative, non-phosphorylatable survivin mutant with Thr34→Ala substitution, expressed from transfected cDNA (also HA- or GFP-tagged)”?
**A.** internucleosomal DNA fragmentation by TUNEL (F5.C4 cells, Tet-deprived): stained intensely for internucleosomal DNA fragmentation by TUNEL; caspase-9 processing by Western blotting (cell cycle synchronized Tet− F5.C4 cells after thymidine release): time-dependent cleavage of 46 kDa proform caspase-9 and generation of ˜35 kDa and ˜37 kDa active caspase-9 bands; G2/M and apoptotic (sub-G1) DNA content after transgene induction: nearly complete loss of mitotic (G2/M) cells, and appearance of a prominent population with apoptotic (sub-G1) DNA content; G2/M and apoptotic (sub-G1) DNA content after transgene induction (listed as Thr^34→Ala mutant): progressive time-dependent loss of mitotic (G2/M) cells and coincident accumulation of apoptotic cells
